# Laboratory results reported in patent US20110224221A1, “HEMATOPOIETIC PROTECTION AGAINST IONIZING RADIATION USING SELECTIVE CYCLIN-DEPENDENT KINASE 4/6 INHIBITORS” (priority 2008, published 2011).
# Assays:
# [1] = test system: mice exposed to total body irradiation
# From the text: FIG. 16 is set of bar graphs showing the hematocrit or cell counts of different lineages of blood cells from mice 143-242 days following exposure to a lethal dose (7.5 gray (Gy)) or sub-lethal dose (6.5 Gy) of total body irradiation (TBI). Data for mice treated with 6-acetyl-8-cyclopentyl-5-methyl-2-(5-piperazin-1-yl-pyridin-2-ylamino)-8H-pyrido-[2,3-d]pyrimidin-7-one (PD 0332991) prior to 6.5 Gy TBI is shown in the solid bars and data for mice treated with PD 0332991 prior to 7.5 Gy TBI is shown in the stippled bars. […] Myeloid cell count is the sum of granulocytes and monocytes.
# [2] = Serum/plasma levels after oral gavage; type: in vivo, mice
# Protocol: Mass Spectrometry: Mice were dosed as described and tail vein nick performed to acquire 30 μL periphal blood. Blood was centrifuged to acquire 10 μL plasma, which was mixed with 100 μL ice cold methanol, centrifuged, and mixed with 10 μL of an internal control. Plasma levels were quantified based on standard curves derived in triplicate from known concentrations of wild type C57Bl/6 female mouse plasma unexposed to the measured drug. Quantification was performed using HPLC separation with triple quadrupole mass spectrometry normalizing results to measurement of the internal standard.
# [3] = test system: TyrRAS+Ink4a/Arf−/− melanoma; details: mouse, in vivo; cited from earlier work
# [4] = test system: peripheral blood lineages; set-up: species or system mice; details: mouse, in vivo
# From the text: Data are shown as a moving average with each point representing the mean of three consecutive […]. Error bars are +/− of the standard error of the mean for all data points associated with the moving average. The solid black bar in the lower left of each graph indicates the duration of the PD0332991 treatment. Data from PD0332991 treated mice is shown by the unshaded squares. For comparison, data from mice that had not been treated with PD0332991 is shown in shaded circles.
# For TBI experiments, mice were irradiated using a ^137Cs source (AECL Gammacell 40 Irradiator, Atomic Energy of Canada Ltd, Mississauga, Ontario, Canada). Delivered doses were at or near the empirically determined LD90 of 7.5 Gy, consistent with prior studies. See Na Nakorn et al., J. Clin. Invest., 109, 1579-1585 (2002); Herodin et al., Blood, 101, 2609-2616 (2003); Uckun et al., Blood, 75, 638-645 (1990); and Wang et al., Proc. Natl. Acad. Sci., USA, 94, 14590-14595 (1997). Peripheral blood was collected using a tail vein nick for complete blood cells (CBCs) and analyzed with a HemaTrue analyzer (Heska Co., Loveland, Colo., United States of America).
# These observations are consistent with the kinetics and degree of myelosuppression seen when tumor bearing mice (see Ramsey et al., Cancer Res., 67, 4732-4741 (2007); and Fry et al., Mol. Cancer Ther., 3, 1427-1438 (2004)) and human patients with malignancies (see O'Dwyer et al., “A Phase I does escalation trial of a daily oral CDK4/6 Inhibitor PD 0332991” in American Society of Clinical Oncology (ASCO, Chicago, Ill., 2007)) are serially treated with PD0332991. The noted decreases might be expected to enhance the adverse effects of radiation therapy. However, unexpectedly as shown herein, hematopoietic cells are protected from adverse effects.
# pancreatic islet = details: same dose and schedule (150 mg/kg daily); cited from earlier work
# [5] = test system: KPTR1, KPTR4 and KPTR5 melanoma cell lines; test: Cell cycle analysis (BrdU incorporation in vitro) in murine melanoma cell lines; type: cell-based; details: 24 hours treatment
# From the text: FIG. 2C is a set of graphs showing the dose-response curves for cell cycle analysis in murine (KPTR1, KPTR4 and KPTR5 from TyrRAS+Ink4a/Arf−/−mice) melanoma cell lines. […] The percentage of cells in the G1 phase is indicated by the data shown in the closed squares. The percentage of cells in the S phase is shown by the data in the open triangles. The percentage of cells in the G2/M phase is indicated by the data in the open circles. The percentage of cells actively proliferating as marked by Ki67 positive staining is shown in closed diamonds. Error bars are +/− the standard error of the mean (SEM).
# Cell Lines: KPTR1, KPTR4. and KPTR5 were derived from tumor-bearing TyrRAS+Ink4a/Arf−/− by standard procedures and cultured in RPMI+10% fetal bovine serum (FBS). Telomerized HDFs (tHDFs, also known as HS68) were cultured in DMEM+10% FBS with penicillin and streptomycin. […]
# BrdU Incorporation in vitro: Cells were plated and allowed to adhere overnight or at least 6 hours prior to adding CDK4/6 inhibitor at the indicated concentrations. […] The cells were then washed, trypsinized, pelleted, fixed, permeabilized, stained, and measured on a flow cytometer as described in manufacturer directions for the BrdU Kit (BD Biosciences Pharmingen, San Diego, Calif., United States of America).
structure (smiles),measurement,setting,value
"CC(=O)c1c(C)c2cnc(Nc3ccc(N4CCNCC4)cn3)nc2n(C2CCCC2)c1=O [PD0332991, 6-acetyl-8-cyclopentyl-5-methyl-2-(5-piperazin-1-yl-pyridin-2-ylamino)-8H-pyrido-[2,3-d]-pyrimidin-7-one]",deaths,"[1]; 6.5 Gy TBI, followed 210-274 days post-TBI",no deaths
same,deaths among 29 mice surviving acute toxicity,"[1]; 7.5 Gy TBI, remaining mice disease free 101-251 days post-TBI",one death of unknown cause at day 99
same,blood counts on long-term surviving animals vs unirradiated,[1]; long-term after TBI,comparable
same,myeloproliferative disorder or myelodysplasia,"[1]; mouse, in vivo",No evidence
same,persistence of therapeutic serum levels,[2],10 to 20 h
same,time until therapeutic serum levels are achieved,[2],> 30 min
same,tolerability of dose and schedule,[3],well tolerated without evident toxicity
same,time to begin of improvement upon cessation,[4],≤ 4 days
same,treatment time after which decrease became apparent,[4],8 days
same,"erythroid, platelet and myeloid lineages","[4]; po, 150 mg/kg",modest decrease
same,proliferation in CDK4/6 dependent normal murine tissues such as the pancreatic islet,pancreatic islet,abrogated proliferation
same,sensitivity of derivative tumor cell lines in vitro,[5],insensitive
